Patent publication US11998033B2, “Sweetening compositions” (PepsiCo, Inc., priority 2016, dated 2024)
Where two headings read alike, the source gives them in different places.

Columns and labels:
[1] = assay type: physicochemical
Description: (§1) For the examples below, turbidity is reported in NTUs and was measured at 20±2° C. using a Hach 2100AN Turbidimeter. The instrument was calibrated using a STABLCAL Calibration Kit including samples having turbidities ranging from 0.1 NTU to 7500 NTU. Test samples were measured in a Turbidimeter glass vial and NTU values were read after a 30 second stabilization period.
Varying concentrations of rebaudioside A, rebaudioside C, rebaudioside B, and rebaudioside M were then added individually to the stevioside/rebaudioside D solutions at 70° C. The solutions were allowed to cool to room temperature. Each sample's appearance was noted and turbidity measurements were taken to track solubility.

[2] = Example 9: HPLC analysis of aqueous filtrate after centrifugation and filtration; assay type: physicochemical; conditions: rebaudioside B added at 0.4% to stevioside/rebaudioside D solution, centrifuged, filtered
Description: To confirm that the cloudiness observed in samples comprising rebaudioside B was due to the rebaudioside B itself, a solution of stevioside and rebaudioside D was prepared and rebaudioside B was added at a concentration of 0.4% to form a cloudy suspension. The sample was centrifuged and filtered and the aqueous filtrate was analyzed by HPLC. […] Thus, the cloudiness observed with the addition of rebaudioside B was due to the insolubility of rebaudioside B itself, and not due to the degradation of the rebaudioside D/stevioside complex.

[3] = assay type: physicochemical; remark: listed apart in the source
Description: as §1
Suspensions of 1 weight percent rebaudioside D in water at ambient temperature were prepared in five individual beakers. Rebaudioside A, stevioside, rebaudioside C, and rebaudioside M were added to each of the first four beakers, respectively, such that that the resulting weight ratio of rebaudioside D to the added steviol glycoside was 1:5. As a control, no additional steviol glycoside was added to the fifth beaker.
After stirring, turbidity measurements were taken from each of the five samples and graphed. According to the turbidity measurements, rebaudiosides A and M had no effect on rebaudioside D solubility.

[4] = Example 4: temperature and low shear mixing (turbidity, HPLC of supernatant); assay type: physicochemical
Description: This study was conducted with a 5:1 mixture (weight/weight) of rebaudioside A and rebaudioside D and a 5:1 mixture (weight/weight) of a rebaudioside A composition and rebaudioside D, wherein the rebaudioside A composition included 30 weight percent stevioside.
The described blends were individually combined with water to produce compositions having rebaudioside D concentrations of 1.4 weight percent based on the total mass of the mixture, including water. The mixtures were then mixed under low shear for 10 minutes at ambient temperature (21° C.). A 100 g sample was removed and centrifuged, and the resulting supernatant was analyzed for turbidity and rebaudioside A and D concentration (HPLC).
The mixtures were then warmed to 45° C. and mixed for 10 minutes. Another 100 g sample was removed and analyzed as described above.
The mixtures were finally warmed to 65° C. and mixed for 10 minutes. Another 100 g sample was removed an analyzed as described above.
This experiment was repeated with 10:1 mixtures of the compositions described above, wherein the final rebaudioside D concentration in each of the compositions was 1.43 weight percent, based on the total mass of the composition, including water.

[5] = assay type: physicochemical; remark: listed apart in the source
Description: Rebaudioside D has a better sugar character and taste profile than Rebaudioside A, but only about 200 ppm Rebaudioside D can be solubilized in water at 23° C. after about 30 minutes stirring. While up to about 450 ppm rebaudioside can be solubilized after extended stirring, the amount of time required to prepare these higher concentration rebaudioside D solutions is impractical on a commercial scale. Similarly, while an 8000 ppm aqueous rebaudioside D solution can be prepared by heating rebaudioside D in water to nearly 100° C. for two hours, cooling the solution results in recrystallization, making the solution impractical to work with on a commercial manufacturing scale.
For example, in certain embodiments, rebaudioside D solubility can be increased 50 fold, for example, from about 200 ppm (0.02 weight percent) up to about 10,000 ppm (1 weight percent), when a 1 weight percent rebaudioside D suspension is combined with sufficient stevioside to produce a 50,000 ppm (5 weight percent) steviol glycoside solution. In other embodiments, even greater increases in rebaudioside D solubility can be observed.

[6] = Example 1: room temperature rebaudioside D solubility (turbidity); assay type: physicochemical; conditions: 0.02 to 1.5 weight percent, ambient temperature, FIG. 1
Description: as §1
Rebaudioside D was added to a number of beakers in increasing concentrations (0.02 weight percent, 0.04 weight percent, 0.1 weight percent, 0.5 weight percent, 1 weight percent, and 1.5 weight percent) at ambient temperature. Turbidity measurements were taken to track solubility in the various samples and the results were plotted (FIG. 1).

[7] = Example 2: rebaudioside D solubility at elevated temperatures (turbidity); assay type: physicochemical
Description: as §1
The samples prepared in Example 1 were heated to 70° C. and turbidity was measured again. At 70° C., the 0.5 weight percent rebaudioside D sample was soluble. But the 1 and 1.5 weight percent rebaudioside D samples continued to show maximum turbidity (about 12,000 NTU).

[8] = Example 8: effect of temperature on solubility (appearance, turbidity); assay type: physicochemical
Description: as §1
Aqueous samples containing the amounts of rebaudioside D and stevioside listed in Table 3 were prepared by combining the noted amounts of rebaudioside D and stevioside in water. The samples were then warmed to the temperatures noted in the table.
The appearance of all the samples prepared as above was noted and turbidity measurements were taken to track solubility.

With rebaudioside B as the molecule, how does the solubility [1] read?
Its solubility is “insoluble”.

What about the “appearance after adding the steviol glycoside” value ([1]; added at or over 0.2% to stevioside/rebaudioside D solution) of the same molecule?
The value was “cloudy solution”.

What about the “share of the amount initially added contained in the aqueous filtrate” value [2] of the same molecule?
The value was 65%.

For C=C1C[C@@]23CC[C@H]4[C@@](C)(CCC[C@@]4(C)C(=O)O[C@@H]4O[C@H](CO)[C@@H](O)[C@H](O)[C@H]4O)[C@@H]2CC[C@]1(O[C@@H]1O[C@H](CO)[C@@H](O)[C@H](O)[C@H]1O[C@@H]1O[C@H](CO)[C@@H](O)[C@H](O)[C@H]1O)C3 [stevioside], which “effect of added steviol glycoside on rebaudioside D solubility” value [3] is on record?
Its value is “clear mixture”.

What does the source list for C=C1C[C@@]23CC[C@H]4[C@@](C)(CCC[C@@]4(C)C(=O)O[C@@H]4O[C@H](CO)[C@@H](O)[C@H](O[C@@H]5O[C@H](CO)[C@@H](O)[C@H](O)[C@H]5O)[C@H]4O[C@@H]4O[C@H](CO)[C@@H](O)[C@H](O)[C@H]4O)[C@@H]2CC[C@]1(O[C@@H]1O[C@H](CO)[C@@H](O)[C@H](O[C@@H]2O[C@H](CO)[C@@H](O)[C@H](O)[C@H]2O)[C@H]1O[C@@H]1O[C@H](CO)[C@@H](O)[C@H](O)[C@H]1O)C3 [rebaudioside M]?
effect of added steviol glycoside on rebaudioside D solubility [3]: no effect; effect of adding the steviol glycoside on rebaudioside D's solubility [1]: does not affect rebaudioside D's solubility

Which turbidity ([3]; 1 weight percent rebaudioside D in water, ambient temperature, rebaudioside D to added steviol glycoside 1:5 by weight, FIG. 3) does the source give for rebaudioside C here?
Its turbidity is “about 1000 NTU”.

What about the “effect of adding the steviol glycoside on rebaudioside D's solubility” value [1] of the same molecule?
The value was “does not affect rebaudioside D's solubility”.

Which results are given for C=C1C[C@@]23CC[C@H]4[C@@](C)(CCC[C@@]4(C)C(=O)O[C@@H]4O[C@H](CO)[C@@H](O)[C@H](O)[C@H]4O)[C@@H]2CC[C@]1(O[C@@H]1O[C@H](CO)[C@@H](O)[C@H](O[C@@H]2O[C@H](CO)[C@@H](O)[C@H](O)[C@H]2O)[C@H]1O[C@@H]1O[C@H](CO)[C@@H](O)[C@H](O)[C@H]1O)C3 [rebaudioside A]?
effect of added steviol glycoside on rebaudioside D solubility [3]: no effect; effect on solubility of rebaudioside D ([4]; 5:1 mixture with rebaudioside D, 1.4 weight percent rebaudioside D, low shear 10 minutes, at each of 21° C., 45° C. and 65° C.): neither rebaudioside A nor the rebaudioside A/stevioside composition including 30 weight percent stevioside enhanced the solubility of rebaudioside D; effect on solubility of rebaudioside D ([4]; 10:1 mixture with rebaudioside D, 1.43 weight percent rebaudioside D, low shear): did not enhance the solubility of rebaudioside D; effect of adding the steviol glycoside on rebaudioside D's solubility [1]: does not affect rebaudioside D's solubility

What does the source list for C=C1C[C@@]23CC[C@H]4[C@@](C)(CCC[C@@]4(C)C(=O)O[C@@H]4O[C@H](CO)[C@@H](O)[C@H](O)[C@H]4O[C@@H]4O[C@H](CO)[C@@H](O)[C@H](O)[C@H]4O)[C@@H]2CC[C@]1(O[C@@H]1O[C@H](CO)[C@@H](O)[C@H](O[C@@H]2O[C@H](CO)[C@@H](O)[C@H](O)[C@H]2O)[C@H]1O[C@@H]1O[C@H](CO)[C@@H](O)[C@H](O)[C@H]1O)C3 [rebaudioside D]?
aqueous rebaudioside D solution that can be prepared by heating [5]: 8000 ppm; solubility in water at room temperature [6]: insoluble; solubility in water ([7]; 0.5 weight percent sample at 70° C.): soluble; turbidity ([7]; 1 and 1.5 weight percent samples at 70° C.): about 12,000 NTU; solubility of rebaudioside D at 70° C. and on cooling ([8]; all four concentrations of rebaudioside D below 0.4): dissolved at 70° C., but precipitated from solution when cooled unless stevioside was present; solubility of rebaudioside D ([8]; concentration of 0.1%, 20° C., even up to a 4:1 ratio of stevioside to rebaudioside D): insoluble
